# Measurements: patent publication US9617517B2, “Small chemical compound which promotes induction of differentiation of stem cells into insulin-producing cells and method for inducing differentiation of stem cells into insulin-producing cells using said small chemical compound” (NATIONAL UNIVERSITY CORPORATION KUMAMOTO UNIVERSITY, priority 2011, dated 2017)
# “Also recorded” adds a separate entry of the source.
# Experiments:
# [1] = tested on: mouse ES cells (Pdx1/GFP); test: Differentiation of mouse ES cells into insulin positive cells on nano fiber plate, immunostaining and quantitative image analysis; type: cell-based; conditions: for effect on differentiation into insulin-expressing cells: compound added d11-d17, insulin staining d17 (FIG. 4, 5, 7, 8, 10)
# Description: Two ES cell lines, one expressing green fluorescent protein (GFP) under the control of insulin 1 promoter, designed ING (Higuchi Y., Shiraki N., Yamane K, Qin Z., Mochitate K., Araki K., Senokuchi K., Yamagata K., Hara M., Kume K., and Kume S., Synthesized basement membranes direct the differentiation of mouse embryonic stem cells into pancreatic lineages. J. Cell Science, 123, 2733-2742, 2010), and the other one expressing GFP under the control of Pdx1 promoter, designated SK7 (Shiraki N, Yoshida T, Araki K, et al. Guided differentiation of embryonic stem cells into Pdx1-expressing regional-specific definitive endoderm. Stem Cells. 2008; 26:874-885), were used. Both cell lines were maintained on mouse embryonic fibroblast (MEF) feeders in Glasgow minimum essential medium (Invitrogen) containing 1000 units/ml leukemia inhibitory factor (LIF; Chemicon), 15% Knocked-out Serum Replacement (KSR; Gibco), 1% fetal bovine serum (FBS; Hyclone), 100 μM nonessential amino acids (NEAA; Invitrogen), 2 mM L-glutamine (L-Gln; Invitrogen), 1 mM sodium pyruvate (Invitrogen), 50 units/ml penicillin and 50 μg/ml streptomycin (PS; Invitrogen) and 100 μM β-mercaptoethanol (β-ME; Sigma), as ES maintenance medium.
# For the differentiation studies, ES cells were plated at 5,000 cells per well in Corning 96 well plate with Ultra-Web Synthetic Polyamine Surface (#3873XX1, Corning Coster, Cambridge, Miss.), and cultured. The cells were cultured in Dulbecco's Modified Eagle Medium (DMEM: Invitrogen, Glasgow, UK) containing 4500 mg/L glucose, supplemented with NEAA, L-Gln, PS, β-ME, 10 μg/ml insulin (Sigma-Aldrich), 5.5 μg/ml transferrin (Sigma-Aldrich), 6.7 pg/ml selenium (Sigma-Aldrich), and 0.25% Albmax (Invitrogen), 10 ng/mL recombinant human activin-A (R&D Systems, Minneapolis, Minn.), 5 ng/mL; recombinant human bFGF for 7 days (d1-d7) (I of FIG. 1). And then, the medium was changed to RPMI 1640 medium (Invitrogen) containing 2000 mg/L glucose (Sigma, St Louis, Mo.), 1 μM Retinoic acid (Sigma-Aldrich), 50 ng/ml Human Recombinant Fibroblast Growth Factor-10 (Peprotech, Rocky Hill, N.J.), B27 SUPPLEMENT (Invitrogen) and 0.25 μM 3-Keto-N-(aminoethyl-aminocaproyl-dihydrocinnamoyl) cyclopamine Shh Signaling Antagonist II (Calbiochem, San Diego, Calif.) on d7 to d11 (II of FIG. 1). Finally, the medium was switched to DMEM containing 1000 mg/L glucose supplemented with NEAA, L-Gln, PS, β-ME, 10 μg/ml insulin (Sigma-Aldrich), 5.5 μg/ml transferrin (Sigma-Aldrich), 6.7 pg/ml selenium (Sigma-Aldrich), 0.25% Albmax (Invitrogen) and 10 mM nicotinamide (Sigma-Aldrich) on d11 to d17 (III of FIG. 1). Media were replaced every 2 days with fresh medium and growth factors until d17.
# All tested small chemical compounds were solved in dimethyl sulfoxide (DMSO) at given concentration. Compounds were added on d11, d13 and d15 in a medium. Final concentration of DMSO was adjusted at 1.0% in all experiments for compounds.
# After 17 days cell culture, cultured ES cells were fixed in 4% paraformaldehyde in PBS for 30 min at room temperature, and rinsed several times with PBS. Then, cells were incubated in the added diluted primary antibody in 20% Blocking One (Nacalai tesque, Tokyo, Japan) in PEST (0.1% Tween-20 in PBS) in a humidified chamber for overnight at 4° C. After washing the cells in PBST, cells were incubated with the secondary antibody in 20% Blocking One for 2 hr at room temperature in dark. After washing off the secondary antibody in PBST, cells were counterstained with […] (DAPI) (Roche Diagnostics). The following antibodies were used as First antibodies: Rabbit anti-GFP (MBL International Corp., Woburn, Mass.), Mouse anti-Insulin (Sigma). The following antibodies were used as Secondary antibodies: Alexa 568-conjugated, Alexa 488-conjugated antibodies (Invitrogen) Cells were counterstained with DAPI (Roche Diagnotics, Basel, Switzerland).
# Drd2KD cells = test: Differentiation into insulin-producing cells in dopamine D2 receptor knock-down cell line; type: cell-based, mouse; conditions: 0.63 μM reserpine, Drd2KD cells (FIG. 9B)
# Description: In the Vmat2-knockdown and Drd2-knockdown assays, Expression Arrest non-silencing control shRNA (Open Biosystems, #RHS4080), Vmat2 hRNA (Open Biosystems, #RMM3981-97058457 and #RMM3981-97058458) or Drd2 hRNA (Open Biosystems, #RMM3981-9594258) lentiviral vectors were used. For virus preparation, HEK293-FT cells (Invitrogen) were seeded on a plate medium the day before transfection. After overnight culture, the cells were transfected with lentiviral vectors and ViraPower™ Lentiviral Packaging Mix (Invitrogen) using FuGENE6 Transfection Reagent (Roche) according to the manufacturer's protocol. Cells were incubated in the ES maintenance medium for 24 hours, and viral supernatants were collected. Then, SK7 cells were infected with the viral supernatants. After incubation for 24 hours, the virus-containing medium was replaced with fresh ES maintenance medium. Further 24 hours later, the infected cells were selected using […] puromycin. The surviving cells were cloned as a knockdown-cell lines.
# To confirm that a dopamine signal suppresses the differentiation into insulin-expressing cells through activation of its receptor, a dopamine D2 receptor knock-down cell line, Drd2KD was established (FIG. 9A).
smiles,measurement,setting,value
"COC(=O)[C@H]1[C@H]2C[C@@H]3c4[nH]c5cc(OC)ccc5c4CCN3C[C@H]2C[C@@H](OC(=O)c2cc(OC)c(OC)c(OC)c2)[C@@H]1OC [Reserpine, reserpine]",hit confirmed by dose-responsiveness,"[1]; 0.08 to 10 μM, SK7 ES cells",positive
same,effect on differentiation into insulin-expressing cells,[1],enhanced insulin-positive staining; also recorded: increased insulin-producing cells
same,effect on differentiation into insulin-expressing cells,[1]; listed as reserpine,concentration-dependent effect was observed
same,concentration of maximum effect on insulin positive cells,[1]; concentration-dependent test at 0 to 10 μM (FIG. 4),0.63 µM
same,effect on Pdx1 positive pancreatic precursor cells,"[1]; reserpine 0.63 μM, Pargyline 1 μM (FIG. 6, 7)",did not change the number of pancreatic precursor cells
same,promotion of differentiation into insulin-producing cells,Drd2KD cells,did not promote differentiation
